The target of this assay is T1, bile salt export pump (BSEP) (Homo sapiens, UniProt O95342).
T1 construct: gene ABCB11
Put plainly: inhibition of taurocholate transport in membrane preparations from HEK293 cells overexpressing human BSEP. In kind it is biochemical.

T1 sequence (O95342 whole entry): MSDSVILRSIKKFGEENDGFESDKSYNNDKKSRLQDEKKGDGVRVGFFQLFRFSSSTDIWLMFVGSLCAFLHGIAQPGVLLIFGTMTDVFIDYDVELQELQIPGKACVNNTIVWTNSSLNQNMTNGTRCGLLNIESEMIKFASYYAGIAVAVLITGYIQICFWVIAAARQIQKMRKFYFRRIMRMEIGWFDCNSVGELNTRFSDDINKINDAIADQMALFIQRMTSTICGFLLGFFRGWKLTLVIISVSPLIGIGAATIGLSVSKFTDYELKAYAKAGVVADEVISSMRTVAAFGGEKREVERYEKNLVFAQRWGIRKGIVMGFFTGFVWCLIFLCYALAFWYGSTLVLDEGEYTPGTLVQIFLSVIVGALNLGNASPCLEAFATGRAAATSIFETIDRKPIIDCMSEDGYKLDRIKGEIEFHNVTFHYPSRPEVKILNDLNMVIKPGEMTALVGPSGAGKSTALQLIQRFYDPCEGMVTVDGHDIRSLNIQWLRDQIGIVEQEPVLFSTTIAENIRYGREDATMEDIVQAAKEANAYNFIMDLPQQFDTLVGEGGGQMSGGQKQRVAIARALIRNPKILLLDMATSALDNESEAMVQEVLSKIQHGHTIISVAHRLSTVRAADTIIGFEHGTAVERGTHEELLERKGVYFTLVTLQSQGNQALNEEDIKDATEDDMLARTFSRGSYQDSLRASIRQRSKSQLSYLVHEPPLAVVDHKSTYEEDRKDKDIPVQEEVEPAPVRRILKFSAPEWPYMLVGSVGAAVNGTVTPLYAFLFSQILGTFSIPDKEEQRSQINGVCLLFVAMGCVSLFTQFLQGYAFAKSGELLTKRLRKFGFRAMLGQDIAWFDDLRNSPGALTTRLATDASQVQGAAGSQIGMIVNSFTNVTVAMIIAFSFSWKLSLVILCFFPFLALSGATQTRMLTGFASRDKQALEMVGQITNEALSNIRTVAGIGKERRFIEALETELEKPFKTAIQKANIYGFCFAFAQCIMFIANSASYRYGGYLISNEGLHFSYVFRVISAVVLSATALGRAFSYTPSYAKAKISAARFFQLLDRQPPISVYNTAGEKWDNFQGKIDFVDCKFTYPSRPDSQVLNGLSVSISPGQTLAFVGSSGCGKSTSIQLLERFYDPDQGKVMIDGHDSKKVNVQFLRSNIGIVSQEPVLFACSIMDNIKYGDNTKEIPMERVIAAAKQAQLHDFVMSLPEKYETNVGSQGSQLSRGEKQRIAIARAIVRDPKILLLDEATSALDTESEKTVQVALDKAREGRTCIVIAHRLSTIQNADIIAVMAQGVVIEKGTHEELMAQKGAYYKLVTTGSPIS

As a reminder, the IC50 is the concentration that gives 50% inhibition. With `CCCC1COC(Cn2cncn2)(c2ccc(Cl)cc2Cl)O1` (centres unmarked) [Pi, propiconazole], the concentration for half-maximal inhibition (IC50) was determined as 78.6 µM.

With `CC(C)(C)C(O)(CCc1ccc(Cl)cc1)Cn1cncn1` (centres unmarked) [Te, tebuconazole], the IC50 was found to be 38 µM.

Values taken from article PMC9600068, “New Approach Methods for Hazard Identification: A Case Study with Azole Fungicides Affecting Molecular Targets Associated with the Adverse Outcome Pathway for Cholestasis” (Cells, 2022).
